From paper PMC3853091, “Antiproliferative effects of lanreotide autogel in patients with progressive, well-differentiated neuroendocrine tumours: a Spanish, multicentre, open-label, single arm phase II study” (BMC Cancer, 2013)

Experiments:
advanced pancreatic NET = settings: patients with advanced pancreatic NET; cited from earlier work
Text: Other treatment modalities that have shown promise as antiproliferative agents for advanced NET include mTOR or tyrosine kinase inhibitors. […] The combination of everolimus and octreotide LAR also stabilised tumour growth in patients with carcinoid NET [32].

[1] = Lanreotide trough serum levels (validated RIA with 125I-labelled lanreotide); type: in vivo, human (patients); settings: human, subcutaneous, mean ± SD
Protocol: Efficacy (radiological, biochemical and clinical) and pharmacokinetic (PK) assessments were performed every 12 weeks and at the final study evaluation, 28 (±5) days after the final lanreotide dose. AEs and concomitant treatments were recorded at each 4-weekly treatment visit and at the final evaluation.
(§1) Safety analyses included AEs (coded using the Medical Dictionary for Regulatory Activities [MedDRA] version 11.1), vital signs, and serum haematology and biochemistry. Blood samples for analysis of lanreotide trough serum levels and, if applicable, for evaluation of the presence and specificity of anti-lanreotide antibodies were collected at screening and at weeks 8, 20, 32, 44, 56, 68 and 92, just before drug administration.
(§2) Tumour biomarkers, serum lanreotide concentrations and anti-lanreotide antibodies were analysed in a central laboratory. Serum CgA levels were determined using a radioimmunoassay (RIA) with coefficients of variation (CVs) of 6–10% (Cisbio International, Gif-sur-Yvette, France), and urinary 5-HIAA levels were measured using high-performance liquid chromatography with CVs of 4–6% (Bio-rad Laboratories GmbH, München, Germany). Circulating lanreotide concentrations were measured using a validated RIA with [^125I]-labelled lanreotide as a competitor for the quantification of lanreotide. During assay validation, the lower limit of quantification for lanreotide was 0.078 ng/mL and CVs were 2.3–13.6%. Anti-lanreotide antibodies were detected using a radioimmunoprecipitation assay (RIPA) with […] for immune-complex precipitation and [^125I]-labelled lanreotide as the tracer. Results were expressed as the percentage of precipitation. During validation, the assay sensitivity was 1/3,200,000 using a rabbit polyclonal anti-lanreotide antibody and intra- and inter-assay precision values were <5.7% and <5.3%, respectively. The screening assay cutpoint was determined as the 95th percentile of the distribution obtained with pre-treatment samples from 22 patients from the study. […]

[2] = Anti-lanreotide antibodies (radioimmunoprecipitation assay with confirmatory competition); type: in vivo, human (patients); settings: RIPA
Text: as §1
as §2, with “precipitation.” for “precipitation. During validation, the assay sensitivity was 1/3,200,000 using a rabbit polyclonal anti-lanreotide antibody and intra- and inter-assay precision values were <5.7% and <5.3%, respectively. The screening assay cutpoint was determined as the 95th percentile of the distribution obtained with pre-treatment samples from 22 patients from the study.”

Row | SMILES | PFS (advanced pancreatic NET) [months] | level at 3360 h ([1]; week 20, after five injections of 120 mg every 28 days, n = 27, read-out: Steady-state trough serum lanreotide level) [ng/mL] | level at 5376 h ([1]; week 32, 120 mg every 28 days, read-out: Mean trough serum lanreotide level (maximum)) [ng/mL] | level at 15456 h ([1]; week 92, 120 mg every 28 days, read-out: Mean trough serum lanreotide concentration) [ng/mL] | Patients with anti-lanreotide antibodies detected ([2]; assessments after week 8, two patients, one of them temporarily) [%] | Anti-lanreotide antibodies in serum ([2]; week 8, all 25 patients tested)
1 | CO[C@H]1C[C@@H]2CC[C@@H](C)[C@@](O)(O2)C(=O)C(=O)N2CCCC[C@H]2C(=O)O[C@H]([C@H](C)C[C@@H]2CC[C@@H](OCCO)[C@H](OC)C2)CC(=O)[C@H](C)/C=C(\C)[C@@H](O)[C@@H](OC)C(=O)[C@H](C)C[C@H](C)/C=C/C=C/C=C/1C [everolimus] | 11.0 |  |  |  |  | 
2 | CCN(CC)CCNC(=O)c1c(C)[nH]c(/C=C2\C(=O)Nc3ccc(F)cc32)c1C [sunitinib] | 11.4 |  |  |  |  | 
3 | CC(C)[C@@H]1NC(=O)[C@H](CCCCN)NC(=O)[C@@H](Cc2c[nH]c3ccccc23)NC(=O)[C@H](Cc2ccc(O)cc2)NC(=O)[C@@H](NC(=O)[C@H](N)Cc2ccc3ccccc3c2)CSSC[C@@H](C(=O)N[C@H](C(N)=O)[C@@H](C)O)NC1=O [lanreotide] |  | 5.2 ± 2 | 6 ± 2.9 | 5.3 ± 2 | 7 | negative
